Results reported in patent publication US20240156767A1, “SCREENING METHOD FOR GLP-1 SECRETION REGULATION AGENT, GLP-1 SECRETION REGULATION AGENT, COMPOSITION FOR PREVENTING OR AMELIORATING DIABETES, OBESITY, POSTPRANDIAL HYPERGLYCEMIA, NEURODEGENERATIVE DISEASE, HYPOGLYCEMIA, ADIPOSITY, OR NESIDIOBLASTOSIS, METHOD FOR PROMOTING SECRETION OF GLP-1 IN …” (The Nisshin OilliO Group, Ltd., priority 2021, published 2024).

What was measured:
Assay type in all cases: in vivo
C57BL/6 male mice = assay: Glucose tolerance test in mice: plasma insulin concentration (ELISA); conditions: 1000 mg/kg oral; for Plasma insulin concentration: glucose 2.5 g/kg 60 minutes after sample, blood 30 minutes after glucose, mean±standard error; for Effect on plasma insulin concentration (in words): wild-type mice, glucose tolerance test
Procedure: A glucose tolerance test was carried out by the following method to examine the effect by administration of various medium chain fatty acids (capric acid or lauric acid, both are a free body) to mice on plasma insulin secretion at that time. Note here that the above-mentioned medium chain fatty acid corresponds to a GPR84 agonist. Ten tablets of PBS (trade name “Phosphate Buffered Salts Tablets”, manufactured by Takara Bio Inc.) were dissolved in distilled water, and the total volume was adjusted to 1000 ml. To 10 ml of the prepared solution, 50 mg of carboxymethyl cellulose (trade name “Carboxymethyl cellulose sodium”, manufactured by FUJIFILM Wako Pure Chemical Industries, Ltd.) was added and mixed to obtain a carrier solution. To the obtained carrier solution, 2 g of capric acid (trade name “Decanoic acid”, manufactured by FUJIFILM Wako Pure Chemical Industries, Ltd.) was added, and mixed while heating to obtain a capric acid sample. A carrier solution was obtained in the same manner as in the (1-2) above. To the obtained carrier solution, 2 g of lauric acid (trade name “Dodecanoic acid”, manufactured by Sigma-Aldrich) was added and mixed while heating to obtain a lauric acid sample. Ten tablets of PBS (trade name “Phosphate Buffered Salts Tablets”, manufactured by Takara Bio Inc.) were dissolved in distilled water, and the total amount was adjusted to 1000 ml. To 10 ml of the prepared solution, 2.5 g of glucose (trade name “D(+)-glucose”, manufactured by FUJIFILM Wako Pure Chemical Industries, Ltd.) was added to obtain a glucose liquid. Based on the following method, any one of a control sample, a capric acid sample, and a lauric acid sample was administered to mice in each group, and then a glucose solution was further administered to carry out a glucose tolerance test. C57BL/6 male mice at 7- to 9-weeks old were purchased from Japan SLC, Inc. Each mouse (15 mice in total) was acclimatized for 1 week and then divided into three groups (a control sample administration group, a capric acid sample administration group, and a lauric acid sample administration group) so that the average body weight was uniform. […] Plasma was prepared from the obtained blood by a conventional method, and the plasma insulin concentration (pg/ml) was measured. The plasma insulin concentration was measured by ELISA using a commercially available kit (trade name “Revis (trademark) Insulin-Mouse (RTU)”, manufactured by Fujifilm Wako Shibayagi Co., Ltd.). In the data of FIG. 2 and Table 2, the measured value of the plasma insulin concentration was expressed as “mean±standard error”. Dunnet's test was used to test significant differences between trials, and significant differences were determined to exist when the risk rate was less than 5% (*p<0.05).

wild-type mice = assay: Administration test: plasma GLP-1 concentration in wild-type mice (ELISA); conditions: WT mice, 1000 mg/kg oral; for Relative GLP-1 (plasma GLP-1 concentration relative to before administration = 1): 120 minutes after administration, mean±standard error
Procedure: An administration test was carried out by the following method to examine an effect of administration of various medium chain fatty acids (capric acid or lauric acid, both are a free form) to mice on plasma GLP-1 secretion. The above medium chain fatty acids correspond to GPR84 agonists. A control sample (carboxymethylcellulose), a capric acid sample, and a lauric acid sample were prepared in the same manner as in the <Test 2> above. Based on the following method, any one of a control sample, a capric acid sample, and a lauric acid sample was administered to mice in each group. In this test, two types of mice, that is, wild-type mice and GPR84 knockout mice, were prepared. As wild-type mice, 18 C57BL/6 male mice at 7- to 9-weeks old (purchased from Japan SLC, Inc.) were used. As the GPR84 knockout mice, 12 mice were prepared using C57BL/6 according to the method by Wang et al. (Pharmacological Research Volume 164, February 2021, 105406). Furthermore, the age in weeks of the GPR84 knockout mice was the same as that of the wild-type mice. Each mouse was acclimatized for one week, and then divided into six groups (a control sample-administered group, a capric acid sample-administered group, and a lauric acid sample administration group for each of the wild-type mice and the GPR84 knockout mice) so that average value of the body weight is uniform in each group. Note here that the mice were reared in plastic cages under an environment of temperature of 24±1° C., humidity of 50±10%, and a 12-hour light-dark cycle (lighting from 8:00 to 20:00). Water and solid feed (trade name “CLEA Rodent Diet CE-2 for mice, rats and hamsters”, manufactured by CLEA Japan Co., Ltd.) were fed ad libitum. However, the day before the glucose tolerance test, fasting was started from 17:00, and on the day of the test, the administration was started from 10:00. Each sample (any one of a control sample, a capric acid sample, and a lauric acid sample) was administered to each group of mice after blood was collected from the tail vein. […] Plasma was prepared by a conventional method from the blood obtained before and after sample administration, and the plasma GLP-1 concentration (pM) was measured. The plasma GLP-1 concentration was measured by ELISA using a commercially available kit (trade name “Glucagon Like Peptide-1 (Active) ELIS”, manufactured by Sigma-Aldrich). The data in FIG. 3 and Table 3 are expressed as relative values (Relative GLP-1) when the average value of plasma GLP-1 concentration before administration of each sample is set to “1”, and expressed as “mean±standard error of the relative values”. Dunnet's test was used to test significant differences between trials, and significant differences were determined to exist when the risk rate was less than 5% (*p<0.05). […]

GPR84 knockout mice = assay: Administration test: plasma GLP-1 concentration in GPR84 knockout mice (ELISA); conditions: GPR84KO mice; 1000 mg/kg oral; 120 minutes after administration; mean±standard error
Procedure: An administration test was carried out by the following method to examine an effect of administration of various medium chain fatty acids (capric acid or lauric acid, both are a free form) to mice on plasma GLP-1 secretion. The above medium chain fatty acids correspond to GPR84 agonists. A control sample (carboxymethylcellulose), a capric acid sample, and a lauric acid sample were prepared in the same manner as in the <Test 2> above. Based on the following method, any one of a control sample, a capric acid sample, and a lauric acid sample was administered to mice in each group. In this test, two types of mice, that is, wild-type mice and GPR84 knockout mice, were prepared. As wild-type mice, 18 C57BL/6 male mice at 7- to 9-weeks old (purchased from Japan SLC, Inc.) were used. […] Plasma was prepared by a conventional method from the blood obtained before and after sample administration, and the plasma GLP-1 concentration (pM) was measured. The plasma GLP-1 concentration was measured by ELISA using a commercially available kit (trade name “Glucagon Like Peptide-1 (Active) ELIS”, manufactured by Sigma-Aldrich). The data in FIG. 3 and Table 3 are expressed as relative values (Relative GLP-1) when the average value of plasma GLP-1 concentration before administration of each sample is set to “1”, and expressed as “mean±standard error of the relative values”. […]

SMILES	Plasma insulin concentration (C57BL/6 male mice)	Effect on plasma insulin concentration (in words) (C57BL/6 male mice)	Effect on plasma GLP-1 concentration (in words) (wild-type mice)	Relative GLP-1 (plasma GLP-1 concentration relative to before administration = 1) (wild-type mice)	Relative GLP-1 (plasma GLP-1 concentration relative to before administration = 1) (GPR84 knockout mice)
CCCCCCCCCC(=O)O [Capric acid, capric acid (n-decanoic acid)]	395.1 ± 26.1 * pg/ml	significantly increased plasma insulin concentrations	significantly increased the plasma GLP-1 concentration	1.65 ± 0.29 *	0.63 ± 0.2
CCCCCCCCCCCC(=O)O [Lauric acid, lauric acid]	702.8 ± 84.4 * pg/ml	significantly increased plasma insulin concentrations	significantly increased the plasma GLP-1 concentration	3.02 ± 0.67 *	0.68 ± 0.19
